The text below walks through data of patent publication US10391080B2, “Ketorolac for the treatment of cancer” (Cipla Limited, priority 2016, dated 2019).

The test system of this assay is ten selected renal cancer cell lines. Kind of assay: In vitro 2D assay, CellTiter-Blue Cell Viability Assay, whole panel. The assay is classed as cell-based, human. Particulars: for IC50: Homo sapiens, geometric mean of ten cell lines, 96 h treatment. As for the experimental part: The objective of this study was to investigate the in-vitro anticancer activity of ketorolac. Antitumor activity was assessed in ten selected renal cancer cell lines by using the CellTiter-Blue Cell Viability Assay. The human renal cancer cell lines RXF 1183L, RXF 1220L, RXF 1781L, RXF 393L, RXF 486L, RXF 786-0, RXF A-498, RXF ACHN, RXF Caki-1 and RXF SN12C were used. RXF 1183L, RXF 1220L, RXF 1781L, RXF 393L and RXF 486L were established at Oncotest from the corresponding human patient-derived xenograft. The cell lines 786-0, A-498, Caki-1 and SN12C were purchased from NCI (National Cancer Institute, Bethesda, Md., USA). ACHN was purchased from ECACC (European Collection of Cell Cultures, Salisbury, UK). Authenticity of cell lines was confirmed at the DSMZ by STR (short tandem repeat) analysis, a PCR based DNA-fingerprinting methodology.
Cell lines were routinely passaged once or twice weekly and maintained in culture for up to 20 passages. All cells were grown at 37° C. in a humidified atmosphere with 5% CO2 in RPMI 1640 medium (25 mM HEPES, with L-glutamine, #FG1385, Biochrom, Berlin, Germany) supplemented with 10% (v/v) fetal calf serum (Sigma, Taufkirchen, Germany) and 0.1 mg/mL gentamicin (Life Technologies, Karlsruhe, Germany).
Ketorolac was dissolved at a concentration of 60 mM in cell culture media. Starting with this stock solution, dilutions were made using cell culture media resulting in final test concentrations of 12000, 7800, 6000, 4200, 3000, 1800, 600, 420, 180, 60 μM. Precipitation was not observed.
The CellTiter-Blue Cell Viability Assay was used according to manufacturer's instructions. Briefly, cells were harvested from exponential phase cultures, counted and plated in 96-well flat-bottom microtiter plates at a cell density of 4,000-12,000 cells/well depending on the cell line's growth rate. […] Following an incubation period of up to four hours, fluorescence (FU) was measured by using the Enspire Multimode Plate Reader (excitation λ=531 nm, emission λ=615 nm). […]
Background: The colour change of resazurin is a common sign of viable cells or microbes.

Each structure is given as a SMILES string. Where two headings read alike, the source gives them in different places.

Usually IC50 stands for the point on the concentration scale where inhibition reaches its midpoint.

On to `O=C(c1ccccc1)c1ccc2n1CCC2C(=O)O` (racemic) [Ketorolac, (±)-5-benzoyl-2,3-dihydro-1H-pyrrolizine-1-carboxylic acid], for which the IC50 by setting is: (read-out: Absolute IC50, geometric mean) 3.24 mM; (read-out: Relative IC50, geometric mean) 3.76 mM. For the same molecule, where the note is “both runs, all cell lines tested”, the “Activity in all cell lines tested (concentration-effect curves)” value is recorded as “Concentration-dependent activity”.
